Reference: US10799494B2, “Combination of respiratory electron transport chain inhibitors with a cytochrome bd inhibitor” (priority 2015, dated 2020)

Tests used:
[1] = molecular target: M. tuberculosis cytochrome bd-I (Mycobacterium tuberculosis, UniProt L7N662); format: biochemical
[2] = tested on: Mycobacterium tuberculosis (Mtb) H37Rv; test: MGIT growth inhibition assay, time to positivity; format: cell-based
M. tuberculosis H37Rv = M. tuberculosis H37Rv growth inhibition screen at fixed 5 μM; format: cell-based, Mycobacterium tuberculosis; conditions: 5 μM compound; for activity at 5 µM: Mycobacterium tuberculosis, H37RV, aerobic, read-out: Growth of M. tuberculosis H37Rv (aerobic) at 5 μM of [compounds]
[3] = molecular target: recombinant M. tuberculosis bd-I (Mycobacterium tuberculosis, UniProt L7N662); test: Steady-state kinetics of quinol:Mtb bd-I activity with artificial quinol substrates; conditions: FIG. 1, measured at 283 nm
Sequence of recombinant M. tuberculosis bd-I (L7N662 1-485): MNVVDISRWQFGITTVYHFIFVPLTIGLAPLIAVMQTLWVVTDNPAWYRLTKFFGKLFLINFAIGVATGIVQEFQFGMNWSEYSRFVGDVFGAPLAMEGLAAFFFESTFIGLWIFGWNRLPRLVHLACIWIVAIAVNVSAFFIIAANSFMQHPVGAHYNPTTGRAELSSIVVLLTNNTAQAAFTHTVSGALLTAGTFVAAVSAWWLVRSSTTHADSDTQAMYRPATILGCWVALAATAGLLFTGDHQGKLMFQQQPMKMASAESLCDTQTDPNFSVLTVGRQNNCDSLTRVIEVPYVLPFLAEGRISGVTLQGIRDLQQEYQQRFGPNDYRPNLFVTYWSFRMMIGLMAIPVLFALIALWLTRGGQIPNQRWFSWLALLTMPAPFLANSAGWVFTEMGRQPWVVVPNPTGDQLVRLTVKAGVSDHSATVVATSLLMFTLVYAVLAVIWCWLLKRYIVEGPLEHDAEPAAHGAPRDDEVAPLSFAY

[4] = Table 6, compounds at 5x IC90, drug free control 11, followed to 74 days
[5] = Table 8, WDH-2G-6 3 μM, MTC420 5.5 μM, lansoprazole sulphide 26.5 μM, TMC207 250 nM, media control 10

Sequence of M. tuberculosis cytochrome bd-I (L7N662 1-485): as above

3-Methyl-2-(1-(4-(trifluoromethoxy)phenethyl)-1H-pyrazol-4-yl)quinolin-4(1H)-one [WDH-2R-4]
inhibition @ 1 uM (% of cntls) [1]: 56.2 % of cntls
IC50 ([1]; additional compounds, […]): 380 nM

Cc1ccc2nc(C)c(C(=O)NCc3ccc(Oc4ccc(F)cc4)cc3)n2c1 [AWE 402]
Time to Positivity [2, 4]: 15 days
Time to Positivity [2, 5]: 13 days

Cc1c(-c2cccc(Cc3ccc(OC(F)(F)F)cc3)c2)[nH]c2ccccc2c1=O [CK-2-58, 3-Methyl-2-(3-(4-(trifluoromethoxy)benzyl)phenyl)quinolin-4(1H)-one]
inhibition @ 1 uM (% of cntls) [1]: 82.3 % of cntls

COc1ccc(Cc2ccc(-c3[nH]c4ccccc4c(=O)c3C)cc2)cc1 [CK-2-96, 2-(4-(4-Methoxybenzyl)phenyI)-3-methylquinolin-4(1H)-one]
inhibition @ 1 uM (% of cntls) [1]: 85.7 % of cntls

Cc1c(-c2ccc(Oc3ccc(F)cc3)nc2)[nH]c2ccccc2c1=O [CK-3-14, 2-(6-(4-Fluorophenoxy)pyridin-3-yl)-3-methylquinolin-4(1H)-one]
activity at 5 µM (M. tuberculosis H37Rv): 100%

Cc1c(-c2ccc(Oc3ccc(OC(F)(F)F)cc3)nc2)[nH]c2ccccc2c1=O [CK-3-22, 3-Methyl-2-(6-(4-(trifluoromethoxy)phenoxy)pyridin-3-yl)quinolin-4(1H)-one]
inhibition @ 1 uM (% of cntls) [1]: 62.8 % of cntls

COc1c(C)c(-c2ccc(Cc3ccccc3)cc2)nc2ccccc12 [CK-3-23, 2-(4-Benzylphenyl)-4-methoxy-3-methylquinoline]
activity at 5 µM (M. tuberculosis H37Rv): 6.6%

O=c1cc(-c2ccc(Cc3ccc(OC(F)(F)F)cc3)cc2)[nH]c2cc(O)c(F)cc12 [CK-3-68, 6-Fluoro-7-hydroxy-2-(4-(4-(trifluoromethoxy)benzyl)phenyl)quinolin-4(1H)-one]
inhibition @ 1 uM (% of cntls) [1]: 71.7 % of cntls

Cc1c(-c2ccc(Oc3cccc(OCCN4CCOCC4)c3)cc2)[nH]c2ccccc2c1=O [CK-4-15, 3-Methyl-2-(4-(3-(2-morpholinoethoxy)phenoxy)phenyl)quinolin-4(1H)-one]
inhibition @ 1 uM (% of cntls) [1]: 66.6 % of cntls

COc1c(O)c(C)c(CC=C(C)C)c(O)c1OC [Compound Q1H2, ubiquinol-1]
specific catalytic activity [3]: 5.26 ± 0.52 µmol/min/mg

CCOC(=O)c1c(-c2ccc(Cc3ccc(OC(F)(F)F)cc3)cc2)[nH]c2ccccc2c1=O [GN-1710, Ethyl 4-oxo-2-(4-(4-(trifluoromethoxy)benzyl)phenyI)-1,4-dihydroquinoline-3-carboxylate]
activity at 5 µM (M. tuberculosis H37Rv): 100%

NNC(=O)c1ccncc1 [INH, Isoniazid]
Time to Positivity [2, 4]: No effect at 74 days
Time to Positivity ([2]; Table 7 / FIG. 9, compounds at 5x IC90, 7.5×10^5 Mtb cells per tube, drug free control 8, followed to 80 days): No effect

Cc1c(OCC(F)(F)F)ccnc1CSc1nc2ccccc2[nH]1 [Lansoprazole sulphide, lansoprazole sulfide]
Time to Positivity [2, 5]: 13 days
Time to positivity (TtP) ([2]; lansoprazole sulfide 26.5 μM, CK-2-63 35 μM, drug-free control 10 days): 13 days

Cc1c(-c2ccc(N3CCCCC3)cc2)[nH]c2cc(F)cc(F)c2c1=O [MTD-403, 5,7-Difluoro-3-methyl-2-(4-(piperidin-1-yl)phenyl)quinolin-4(1H)-one]
Growth of M. tuberculosis H37Rv (aerobic) at 5 μM of [compounds] (M. tuberculosis H37Rv): No growth

Cc1c(-c2ccc(OC3CCC(F)(F)CC3)cc2)[nH]c2ccccc2c1=O [PG105, 2-(4-((4,4-Difluorocyclohexyl)oxy)phenyI)-3-methylquinolin-4(1H)-one]
inhibition @ 1 uM (% of cntls) [1]: 71.5 % of cntls

Cc1c(-c2ccc(Cc3cccc(OCCN4CCOCC4)c3)cc2)[nH]c2ccccc2c1=O [PG201, 3-Methyl-2-(4-(3-(2-morpholinoethoxy)benzyl)phenyl)quinolin-4(1H)-one]
inhibition @ 1 uM (% of cntls) [1]: 68.7 % of cntls

O=c1c(-c2ccc(Oc3ccc(OC(F)(F)F)cc3)cc2)c(CO)[nH]c2ccccc12 [PG208, 2-(Hydroxymethyl)-3-(4-(4-(trifluoromethoxy)phenoxy)phenyl)quinolin-4(1H)-one]
inhibition @ 1 uM (% of cntls) [1]: 66.7 % of cntls

Cc1c(-c2ccc(-c3ccc(C(F)(F)F)nc3)nc2)[nH]c2ccccc2c1=O [PG-128, 3-Methyl-2-(6′-(trifluoromethyl)-[2,3′-bipyridin]-5-yl)quinolin-4(1H)-one]
activity at 5 µM (M. tuberculosis H37Rv): 95.6%

Cc1[nH]c2ccccc2c(=O)c1-c1ccc(Oc2ccc(OC(F)(F)F)cc2)cc1 [PG-203, 2-Methyl-3-(4-(4-(trifluoromethoxy)phenoxy)phenyl)quinolin-4(1H)-one]
activity at 5 µM (M. tuberculosis H37Rv): 100%

Cc1c(-c2ccc(-c3ccc(C(F)(F)F)cc3)nc2)[nH]c2ccccc2c1=O [RKA 142, 3-Methyl-2-(6-(4-(trifluoromethyl)phenyl)pyridin-3-yl)quinolin-4(1H)-one]
inhibition @ 1 uM (% of cntls) [1]: >50 % of cntls

O=c1cc(-c2ccc(Cc3ccc(OC(F)(F)F)cc3)cc2)n(O)c2ccccc12 [RKA-73, 1-Hydroxy-2-(4-(4-(trifluoromethoxy)benzyl)phenyl)quinolin-4(1H)-one]
activity at 5 µM (M. tuberculosis H37Rv): 100%

COc1ccc2c(=O)c(C)c(-c3ccc(Oc4ccc(OC(F)(F)F)cc4)nc3)[nH]c2c1 [RKA-259, 7-Methoxy-3-methyl-2-(6-(4-(trifluoromethoxy)phenoxy)pyridin-3-yl)quinolin-4(1H)-one]
activity at 5 µM (M. tuberculosis H37Rv): 12.6%

Cc1c(-c2ccc(N3CCCCC3)cc2)[nH]c2ccccc2c1=O [RKA-307, 3-Methyl-2-(4-(piperidin-1-yl)phenyl)quinolin-4(1H)-one]
activity at 5 µM (M. tuberculosis H37Rv): 1.8%

COc1ccc2c(=O)c(C)c(-c3ccc(N4CCCCC4)cc3)[nH]c2c1 [RKA-310, 7-methoxy-3-methyl-2-(4-(piperidin-1-yl)phenyl)quinolin-4(1H)-one]
Growth of M. tuberculosis H37Rv (aerobic) at 5 μM of [compounds] (M. tuberculosis H37Rv): No growth

CO[C@H]1/C=C/O[C@@]2(C)Oc3c(C)c(O)c4c(O)c(c(/C=N/N5CCN(C)CC5)c(O)c4c3C2=O)NC(=O)/C(C)=C\C=C\[C@H](C)[C@H](O)[C@@H](C)[C@@H](O)[C@@H](C)[C@H](OC(C)=O)[C@@H]1C [Rifampicin]
Time to Positivity [2, 4]: No effect at 74 days

COc1cccc2[nH]c(-c3ccc(-c4ccc(OC(F)(F)F)cc4)nc3)c(C)c(=O)c12 [SCR-04-04, 5-Methoxy-3-methyl-2-(6-(4-(trifluoromethoxy)phenyl)pyridin-3-yl)quinolin-4(1H)-one]
inhibition @ 1 uM (% of cntls) [1]: 65.4 % of cntls

COc1ccc2[nH]c(-c3ccc(Cc4ccc(OC(F)(F)F)cc4)cc3)c(C)c(=O)c2c1 [SCR-05-03, 6-Methoxy-3-methyl-2-(4-(4-(trifluoromethoxy)benzyl)phenyl)quinolin-4(1H)-one]
inhibition @ 1 uM (% of cntls) [1]: 60.9 % of cntls

Cc1c(-c2ccc(Cc3ccc(OC(F)(F)F)cc3)cc2)[nH]c2c(O)cccc2c1=O [SCR-06-03D, 8-Hydroxy-3-methyl-2-(4-(4-(trifluoromethoxy)benzyl)phenyl)quinolin-4(1H)-one]
inhibition @ 1 uM (% of cntls) [1]: 73.1 % of cntls

Cc1c(-c2ccc(Cc3ccc(OC(F)(F)F)cc3)cc2)[nH]c2cc(O)ccc2c1=O [SCR-45-01D, 7-Hydroxy-3-methyl-2-(4-(4-(trifluoromethoxy)benzyl)phenyl)quinolin-4(1H)-one]
inhibition @ 1 uM (% of cntls) [1]: 81.5 % of cntls

Cc1c(-c2ccc(-c3ccccc3C(F)(F)F)cc2)[nH]c2ccccc2c1=O [SL-2-36, 3-Methyl-2-(2′-(trifluoromethyl)-[1,1′-biphenyl]-4-yl)quinolin-4(1H)-one]
inhibition @ 1 uM (% of cntls) [1]: 90.5 % of cntls

Cc1c(-c2ccc(-c3ccccc3F)cc2)[nH]c2ccccc2c1=O [SL-3-3, 2-(2′-Fluoro-[1,1′-biphenyl]-4-yl)-3-methylquinolin-4(1H)-one]
inhibition @ 1 uM (% of cntls) [1]: 62.2 % of cntls

CCOC(=O)c1c(-c2ccc(-c3ccc(Cl)cc3)cc2)[nH]c2ccccc2c1=O [WDH-1U-10, Ethyl 2-(4′-chloro-[1,1′-biphenyl]-4-yl)-4-oxo-1,4-dihydroquinoline-3-carboxylate]
activity at 5 µM (M. tuberculosis H37Rv): 82.2%

CCOC(=O)c1c(-c2ccc(-c3ccc(Cl)cc3)cc2)[nH]c2ccccc2c1=O [WDH-1V-9, Ethyl 2-(4′-chloro-[1,1′-biphenyl]-4-yl)-4-oxo-1,4-dihydroquinoline-3-carboxylate]
inhibition @ 1 uM (% of cntls) [1]: 87.5 % of cntls

CCOC(=O)c1c(-c2ccc(-c3ccc(OC(F)(F)F)cc3)cc2)[nH]c2ccccc2c1=O [WDH-1V-10, Ethyl 4-oxo-2-(4′-(trifluoromethoxy)-[1,1′-biphenyl]-4-yl)-1,4-dihydroquinoline-3-carboxylate]
inhibition @ 1 uM (% of cntls) [1]: 79.4 % of cntls

O=c1cc(-c2cnn(Cc3ccc(OC(F)(F)F)cc3)c2)[nH]c2ccccc12 [WDH-1W-5, 2-(1-(4-(Trifluoromethoxy)benzyl)-1H-pyrazol-4-yl)quinolin-4(1H)-one]
activity at 5 µM (M. tuberculosis H37Rv): 61.3%

Cc1c(-c2cnn(Cc3ccc(OC(F)(F)F)cc3)c2)[nH]c2ccccc2c1=O [WDH-2A-9, 3-Methyl-2-(1-(4-(trifluoromethoxy)benzyl)-1H-pyrazol-4-yl)quinolin-4(1H)-one]
activity at 5 µM (M. tuberculosis H37Rv): 97.4%

CC(C)c1c(-c2cnn(Cc3ccc(OC(F)(F)F)cc3)c2)[nH]c2ccccc2c1=O [WDH-2G-6, 3-Isopropyl-2-(1-(4-(trifluoromethoxy)benzyl)-1H-pyrazol-4-yl)quinolin-4(1H)-one]
Time to Positivity [2, 5]: 10 days
inhibition @ 1 uM (% of cntls) [1]: 81.6 % of cntls
